The NIST ThermoML archive (doi:10.1021/acs.jced.6b00688)

Assay: xn = mol fraction of the nth substance listed
Details: 100 kPa, Liquid; for viscosity: Falling or rolling sphere viscometry; for mass density: Vibrating tube method

OCC1CCCCC1 [cyclohexylmethanol] + CC1CCCCC1
Details | mass density [kg/m3] | viscosity [mPa·s]
293.15 K, x2 = 0.0998 | 914.04 | 22.56
293.15 K, x2 = 0.1996 | 898.07 | 12.82
293.15 K, x2 = 0.2999 | 881.82 | 7.902
293.15 K, x2 = 0.3998 | 865.56 | 4.953
293.15 K, x2 = 0.5004 | 848.97 | 3.225
293.15 K, x2 = 0.6007 | 832.61 | 2.164
293.15 K, x2 = 0.6997 | 816.64 | 1.555
293.15 K, x2 = 0.7984 | 800.82 | 1.159
293.15 K, x2 = 0.9012 | 784.55 | 0.891
298.15 K, x2 = 0.0998 | 910.42 | 17.67
298.15 K, x2 = 0.1996 | 894.34 | 10.28
298.15 K, x2 = 0.2999 | 877.99 | 6.5
298.15 K, x2 = 0.3998 | 861.58 | 4.176
298.15 K, x2 = 0.5004 | 844.91 | 2.832
298.15 K, x2 = 0.6007 | 828.51 | 1.92
298.15 K, x2 = 0.6997 | 812.48 | 1.407
298.15 K, x2 = 0.7984 | 796.58 | 1.065
298.15 K, x2 = 0.9012 | 780.24 | 0.817
303.15 K, x2 = 0.0998 | 906.77 | 14.09
303.15 K, x2 = 0.1996 | 890.57 | 8.368
303.15 K, x2 = 0.2999 | 874.13 | 5.421
303.15 K, x2 = 0.3998 | 857.62 | 3.567
303.15 K, x2 = 0.5004 | 840.88 | 2.446
303.15 K, x2 = 0.6007 | 824.38 | 1.715
303.15 K, x2 = 0.6997 | 808.29 | 1.279
303.15 K, x2 = 0.7984 | 792.32 | 0.98
303.15 K, x2 = 0.9012 | 775.91 | 0.769
308.15 K, x2 = 0.0998 | 903.08 | 11.37
308.15 K, x2 = 0.1996 | 886.77 | 6.888
308.15 K, x2 = 0.2999 | 870.24 | 4.567
308.15 K, x2 = 0.3998 | 853.63 | 3.075
308.15 K, x2 = 0.5004 | 836.92 | 2.155
308.15 K, x2 = 0.6007 | 820.24 | 1.542
308.15 K, x2 = 0.6997 | 804.07 | 1.167
308.15 K, x2 = 0.7984 | 788.03 | 0.905
308.15 K, x2 = 0.9012 | 771.56 | 0.718
313.15 K, x2 = 0.0998 | 899.36 | 9.257
313.15 K, x2 = 0.1996 | 882.93 | 5.729
313.15 K, x2 = 0.2999 | 866.31 | 3.884
313.15 K, x2 = 0.3998 | 849.61 | 2.672
313.15 K, x2 = 0.5004 | 832.82 | 1.912
313.15 K, x2 = 0.6007 | 816.06 | 1.393
313.15 K, x2 = 0.6997 | 799.82 | 1.069
313.15 K, x2 = 0.7984 | 783.71 | 0.839
313.15 K, x2 = 0.9012 | 767.17 | 0.672
318.15 K, x2 = 0.0998 | 895.6 | 7.638
318.15 K, x2 = 0.1996 | 879.05 | 4.813
318.15 K, x2 = 0.2999 | 862.35 | 3.332
318.15 K, x2 = 0.3998 | 845.56 | 2.34
318.15 K, x2 = 0.5004 | 828.69 | 1.706
318.15 K, x2 = 0.6007 | 811.86 | 1.264
318.15 K, x2 = 0.6997 | 795.54 | 0.983
318.15 K, x2 = 0.7984 | 779.36 | 0.779
318.15 K, x2 = 0.9012 | 762.76 | 0.631
323.15 K, x2 = 0.0998 | 891.81 | 6.35
323.15 K, x2 = 0.1996 | 875.15 | 4.082
323.15 K, x2 = 0.2999 | 858.35 | 2.882
323.15 K, x2 = 0.3998 | 841.47 | 2.064
323.15 K, x2 = 0.5004 | 824.52 | 1.539
323.15 K, x2 = 0.6007 | 807.62 | 1.152
323.15 K, x2 = 0.6997 | 791.23 | 0.907
323.15 K, x2 = 0.7984 | 774.99 | 0.726
323.15 K, x2 = 0.9012 | 758.33 | 0.594
328.15 K, x2 = 0.0998 | 887.97 | 5.322
328.15 K, x2 = 0.1996 | 871.24 | 3.491
328.15 K, x2 = 0.2999 | 854.31 | 2.512
328.15 K, x2 = 0.3998 | 837.35 | 1.831
328.15 K, x2 = 0.5004 | 820.32 | 1.379
328.15 K, x2 = 0.6007 | 803.35 | 1.054
328.15 K, x2 = 0.6997 | 786.89 | 0.839
328.15 K, x2 = 0.7984 | 770.58 | 0.679
328.15 K, x2 = 0.9012 | 753.86 | 0.561
333.15 K, x2 = 0.0998 | 884.09 | 4.526
333.15 K, x2 = 0.1996 | 867.26 | 3.011
333.15 K, x2 = 0.2999 | 850.23 | 2.204
333.15 K, x2 = 0.3998 | 833.14 | 1.634
333.15 K, x2 = 0.5004 | 816.09 | 1.25
333.15 K, x2 = 0.6007 | 799.05 | 0.967
333.15 K, x2 = 0.6997 | 782.43 | 0.778
333.15 K, x2 = 0.7984 | 766.13 | 0.637
333.15 K, x2 = 0.9012 | 749.37 | 0.531
